The values that follow come from patent publication US9174960B2, “Compounds useful against kinetoplastideae parasites” (CENTRE NATIONAL DE LA RECHERCHE SCIENTIFIQUE, priority 2009, dated 2015).

Where a name gives a salt, the structure may show the parent alone. Read-outs that look alike come from different tables or passages of the source.

One data set has as its system MRC-5SV2 cells. The experiment in a line: Cytotoxicity against human cell lines (resazurin). Particulars: human lung fibroblasts MRC-5.
Data set [1] concerns Primary peritoneal mouse macrophages. The experiment in a line: Toxicity against mouse macrophages (host cells of the L. infantum assay). In kind it is cell-based. Particulars: mouse macrophages (L. inf). The procedure: (§1) The Leishmania infantum MHOM/MA (BE)/67 strain is used. The strain is maintained in the Golden Hamster and spleen amastigotes are collected for preparing infection inocula. Primary peritoneal mouse macrophages are used as host cell and are collected 2 d after peritoneal stimulation with a 2% potato starch suspension. […] After 5 d incubation, parasite burdens (mean number of amastigotes/macrophage) are microscopically assessed after Giemsa staining.

The test system of data set [2] is Trypanosoma brucei brucei Squib 427 strain (suramin-sensitive). Description: In vitro Trypanosoma brucei brucei growth assay (resazurin). In kind it is cell-based. The procedure: The strain is maintained in Hirumi (HMI-9) medium, supplemented with 10% FCSi. […] After 3 d incubation, parasite growth is assessed fluorimetrically after addition of resazurin. After 24 h at 37° C., fluorescence is measured (λex 550 nm, λem 590 nm).

Data set [3] deals with Trypanosoma cruzi, Tulahuen CL, β galactosidase strain (nifurtimox-sensitive). Description: In vitro Trypanosoma cruzi assay on MRC-5 cells (CPRG). Particulars: for trypanocidal activity against T. cruzi (in words): in vitro. It counts as cell-based. The procedure:
Trypanosoma cruzi, Tulahuen CL, β galactosidase strain (nifurtimox-sensitive) is used. The strain is maintained on MRC-5SV2 (human lung fibroblast) cells in MEM medium, supplemented with […] L-glutamine, 16.5 mM NaHCO3, and 5% FCSi. All cultures and assays are conducted at 37° C. under an atmosphere of 5% CO2. Assays are performed in sterile 96-well microtiter plates, each well containing 10 μl of the watery compound dilutions together with 190 μl of MRC-5 cell/parasite inoculum (2·10^4 cells/ml±2·10^5 parasites/ml). Parasite growth is compared to untreated-infected controls (100% growth) and non-infected controls (0% growth) after 7 d incubation. Parasite burdens are assessed after adding the substrate CPRG (chlorophenolred β-D-galactopyranoside): 50 μl/well of a stock solution containing 15.2 mg CPRG+250 μl Nonidet in 100 ml PBS. The change in color is measured spectrophotometrically at 540 nm after 4 h incubation at 37° C.

For data set [4], the system named is bloodstream forms of T. brucei. Particulars: cited from earlier work.
In data set [5] the test system is promastigotes of L. major. Particulars: cited from earlier work.
For data set [6], the system named is procyclic forms of T. b. brucei. Particulars: cited from earlier work.
The nature of data set [7]: Stability of the compound (HPLC analysis, light). It counts as physicochemical.
Data set [8] has as its system Trypanosoma brucei brucei CMP (fast strain). Description: Trypanocidal activity in vivo in T. brucei-infected mice. Particulars: T. brucei-infected Swiss mice. The procedure:
Animals: Swiss mice (female 18-20 g, Janvier, Le Genest St Isle, France) are randomly allocated to groups of 6 animals each. Drinking water and food are available ad libitum throughout the experiment (except when the treatment is given by oral route; in this condition, the treatment is given after 12 h of animal fasting).
Parasite: Trypanosoma brucei brucei CMP (fast strain) is maintained in the laboratory by mechanical intraperitoneal sub-passage every three days in Swiss mice. The infection inoculum is prepared by taking blood collected from a clinically ill donor mouse and diluted in pH 7.2 PBS to obtain an infection inoculum of about 10^5 trypanosomes/ml suspension. Mice are infected by intraperitoneal injection of 0.1 ml of parasite suspension (=10^4 parasites).
Test substances: The reference compound is melarsoprol.
Test compounds are analytically pure compounds.
Formulations: The compounds are formulated in 100% DMSO. Clear solutions should be obtained. The stock solution is divided in aliquots and stored at −20° C. until use. Aliquots are thawed immediately before treatment. The reference compound melarsoprol is formulated in PBS and stored at −20° C.
Treatment: The first dosing with the test compounds was given approx. 3 hours after artificial infection. • Melarsoprol (Arsobal®): 6 infected mice intraperitoneally treated with 1 mg/kg×4 consecutive days. • Test compounds: 6 infected mice per AMTD×1-5 consecutive days. • Controls: 10 infected mice receiving vehicle only (0.1-0.2 ml) Evaluation Parameters:
Parasitemia was checked microscopically from blood collected at the tail of the mice 2 days after the treatment, and every two days until 30 days post-treatment in case of survival. The trypanocidal activity was evaluated by the mean survival time of treated mice for each dose comparatively to survival time of mice treated with the vehicle alone. Treatment was considered to be successful when the mean survival time exceeds 30 days and the mice remains aparasitemic. […] Cure rate are expressed as percentages.

The test system of data set [9] is Leishmania infantum MHOM/MA (BE)/67 strain. Description: In vitro Leishmania infantum assay, intracellular amastigotes in primary peritoneal mouse macrophages. It counts as cell-based. Particulars: L. infantum amastigotes in mouse macrophages, 5 d incubation, reference drug, read-out: IC50 (50% inhibitory concentration), reduction in parasite burden. How it is done:
as §1

Data set [10] has as its system human African trypanosomiasis (HAT). Particulars: cited from earlier work.
Where [11] appears, read: one single dose at 50 mg/kg i.p.

As to `O=C1C[C@H](c2ccncc2)S[C@@H](c2ccncc2)C1` (relative stereo) [TG003A23, trans-2,6-di(pyridin-4-yl)dihydro-2H-thiopyran-4(3H)-one], the “toxicity against mammalian (MRC-5) cells (in words)” value (“toxicity against mammalian” for short) in the data set on MRC-5SV2 cells is “much less cytotoxicity”. Further, the “toxicity against mouse macrophages (in words)” value in [1] is given as “much less cytotoxicity”.

On to `CN1C(c2ccncc2)CC(=O)CC1c1ccncc1` (centres unmarked) [BJ591, 1-Methyl-2,6-di(pyridine-4-yl)piperidin-4-one], for which the “toxicity against mammalian” value with MRC-5SV2 cells is “much less cytotoxicity”. Further, the “toxicity against mouse macrophages (in words)” value in [1] is “much less cytotoxicity”.

For the compound `O=C(/C=C/c1ccccn1)/C=C/c1ccccn1` [BJ621], in the data set on MRC-5SV2 cells, the “toxicity against mammalian” value is “high cytotoxicity”. For the same compound, the “trypanocidal activity against T. brucei (in words)” value in data set [2] is on record as “excellent trypanocidal activity”. Also, in [3], the “trypanocidal activity against T. cruzi (in words)” value is recorded as “excellent trypanocidal activity”.

For the compound `COc1cc(/C=C/C(=O)CC(=O)/C=C/c2ccc(O)c(OC)c2)ccc1O` [Curcumin], the “cytotoxicity against bloodstream forms of T. brucei relative to procyclic forms” value in data set [4] is given as 10 times. Moreover, the LD50 in data set [5] was 37.6 ± 3.5 µM; in [6], 46.5 ± 4.9 µM.

On to `CN1C(c2ccccc2)CC(=O)CC1c1ccccc1` (stereo not drawn) [NW249.1, meso-1-Methyl-2,6-diphenyl-piperidin-4-one], for which the “toxicity against mammalian” value with MRC-5SV2 cells is “low toxicity”. In addition, in data set [1], the “toxicity against mouse macrophages (in words)” value is reported as “without any toxicity”. In data set [2], the “trypanocidal activity against T. brucei (in words)” value was “high trypanocidal activity”.

`O=C(/C=C/c1ccc(OC(F)(F)F)cc1)/C=C/c1ccc(OC(F)(F)F)cc1` [NW254, (1E,4E)-1,5-Bis(4-trifluoromethoxy-phenyl)-penta-1,4-dien-3-one]: the “toxicity against mammalian” value with MRC-5SV2 cells was “without any toxicity”. For the same compound, in data set [1], the “toxicity against mouse macrophages (in words)” value is “without any toxicity”. Also, in data set [2], the “trypanocidal activity against T. brucei (in words)” value is “excellent antitrypanosomal activities”. Moreover, the “trypanocidal activity against T. cruzi (in words)” value in [3] is “excellent antitrypanosomal activities”.

With `O=C(/C=C/c1ccc(C(F)(F)F)cc1)/C=C/c1ccc(C(F)(F)F)cc1` [NW267, (1E,4E)-1,5-Bis(4-trifluoromethyl-phenyl)-penta-1,4-dien-3-one], the “toxicity against mammalian” value in the data set on MRC-5SV2 cells is reported as “without any toxicity”. For the same compound, the “toxicity against mouse macrophages (in words)” value in data set [1] was “without any toxicity”. Further, in data set [2], the “trypanocidal activity against T. brucei (in words)” value is “excellent antitrypanosomal activities”. In [3], the “trypanocidal activity against T. cruzi (in words)” value is listed as “excellent antitrypanosomal activities”.

In the case of `COc1cc(/C=C/C(=O)/C=C/c2ccc(O)c(OC)c2)ccc1O` [NW300, (1E,4E)-1,5-Bis(4-hydroxy-3-methoxyphenyl)penta-1,4-dien-3-one], the “toxicity against mammalian” value with MRC-5SV2 cells is “very high cytotoxicity”. In data set [2], the “trypanocidal activity against T. brucei (in words)” value was “excellent antitrypanosomal activity”.

Turning to `N#Cc1ccc(/C=C/C(=O)/C=C/c2ccc(C#N)cc2)cc1` [NW307.2, (1E,4E)-1,5-Bis(4-cyanophenyl)penta-1,4-dien-3-one], the “toxicity against mammalian” value with MRC-5SV2 cells was “without any cytotoxicity”. Moreover, the “trypanocidal activity against T. brucei (in words)” value in [2] is given as “excellent activity”. Besides, the “trypanocidal activity against T. cruzi (in words)” value in data set [3] is recorded as “excellent activity”.

For the compound `O=C(/C=C/c1ccc(O)c(OC(F)(F)F)c1)/C=C/c1ccc(O)c(OC(F)(F)F)c1` [NW317, (1E,4E)-1,5-Bis(4-hydroxy-3-(trifluoromethoxy)phenyl)penta-1,4-dien-3-one], the “light sensitivity (in words)” value in [7] was “Light-sensitive”.

As for `O=C(/C=C/c1ccncc1)/C=C/c1ccncc1` [NW319, (1E,4E)-1,5-Di(pyridin-4-yl)penta-1,4-dien-3-one Dihydrochloride], the “toxicity against mammalian” value in the data set on MRC-5SV2 cells is “high cytotoxicity”. Moreover, the parasitemia was 0% in data set [8] (setting [11]) and 0% in data set [8] (two doses over a two days-period, 12.5 mg/kg i.p.). Moreover, the “trypanocidal activity against T. brucei (in words)” value in data set [2] is recorded as “excellent trypanocidal activity”. Also, the “trypanocidal activity against T. cruzi (in words)” value in data set [3] is given as “excellent trypanocidal activity”.

Take `O=C(/C=C/c1cccnc1)/C=C/c1cccnc1` [NW321, (1E,4E)-1,5-Di(pyridin-3-yl)penta-1,4-dien-3-one Dihydrochloride]: the “toxicity against mammalian” value in the data set with MRC-5SV2 cells is recorded as “high cytotoxicity”. The parasitemia in [8] (setting [11]) stood at 0%. For the same compound, the “trypanocidal activity against T. brucei (in words)” value in data set [2] is on record as “excellent trypanocidal activity”. Further, the “trypanocidal activity against T. cruzi (in words)” value in data set [3] was “excellent trypanocidal activity”.

Turning to `COc1cc(Br)c(O)c(/C=C/C(=O)/C=C/c2cc(OC)cc(Br)c2O)c1` [NW326.4, (1E,4E)-1,5-Bis(3-bromo-2-hydroxy-5-methoxyphenyl)penta-1,4-dien-3-one], the decomposition in data set [7] (HPLC analysis, after 5 days) amounted to 60%.

Take `COc1ccc(O)c(/C=C/C(=O)/C=C/c2cc(OC)ccc2O)c1` [NW327.2, (1E,4E)-1,5-Bis(2-hydroxy-5-methoxyphenyl)penta-1,4-dien-3-one]: the parasitemia in [8] (setting [11]) was determined as 0%; in data set [8] (two doses over a two days-period, 25 mg/kg i.p.) it was 0%.

As for `CC1CS(=O)(=O)CCN1/N=C/c1ccc([N+](=O)[O-])o1` (centres unmarked) [Nifurtimox, reference compound], the IC50 in [3] (Trypanosoma cruzi, MRC5, 168 h, T. cruzi Tulahuen CL on MRC-5 cells, 7 d incubation, reference drug, read-out: IC50, reduction in parasite burdens) was determined as 0.845 ± 0.2 µM.

In the case of `O=C(O)[C@@H]1[O][Sb](=[O])([O][Sb]2(=[O])[O][C@H]([C@H](O)CO)[C@H](O)[C@H](C(=O)O)[O]2)[O][C@H]([C@H](O)CO)[C@@H]1O.[Na+].[Na+].[Na+]` (some centres unmarked) [Pentostam], the IC50 in data set [9] turned out to be 6.8 ± 0.9 µM.

On to `Nc1nc(N)nc(Nc2ccc([As]3SCC(CO)S3)cc2)n1` (centres unmarked) [melarsoprol], for which the “failure rate after treatment” value in [10] (late stage case of human African trypanosomiasis) is reported as “under 7%”. For the same compound, the “overall mortality due to the drug itself” value in data set [10] (therapy of late-stage encephalitic disease, patients) is “more than 5%”.

On to `CCCCCCCCCCCCCCCCOP(=O)([O-])OCC[N+](C)(C)C` [miltefosine], for which, in data set [9] (Leishmania infantum, Macrophage, 120 h), the IC50 worked out at 5.2 ± 0.8 µM.
